Reference: patent US7544204B2, “Control of halitosis-generating and other microorganisms in the non-dental upper respiratory tract” (Valam Corporation, priority 2003, dated 2009)
Where two headings read alike, the source gives them in different places.

Legend:
Escherichia Coli = conditions: micromolar concentrations; gram negative (E. Coli); illuminated in light box; cited from earlier work
Candida albicans = conditions: methylene blue 450 and 500 microgram/mL; diode laser 664 nm, 275 J/cm fiber length, 400 mW, 687.5 seconds; immunosuppressed murine model; cited from earlier work
P. gingivalis ATCC 33277 = experiment: Lethal photosensitization of P. Gingivalis, colony count; assay type: cell-based, Porphyromonas Gingivalis
Protocol: • Suitable stain dosages for providing lethal sensitization of oral pathogens are determined in vitro by the following procedure. An objective is to determine the minimum duration of light exposure and minimum agent dilution required to achieve at least a 50% reduction in bacteria counts. Experimental tests are performed on two common pathogens using a continuously working, high intensity, red filtered halogen lamp. Red light from the filtered halogen lamp is transmitted through a flexible light guide to radiate downwardly onto petri dishes containing samples of live bacteria of species Porphyromonas Gingivalis and Prevotella Intermedia using the protocols described below. • Bacteria. Prevoltella Intermedia is isolated from patient sample material, identified in the laboratory using standard diagnostic test systems (Remel Inc., Lenexa, Kans., USA) and is maintained by twice-weekly subculture in thioglycollate medium (Becton Dickinson and Co, Sparks, Md., USA). P. gingivalis ATCC 33277 obtained from Remel Inc., is maintained by a twice-weekly subculture on CDC anaerobe blood agar (Becton Dickinson and Co, USA) and in thioglycollate medium (Becton Dickinson and Co, USA). • Light Source. […] The light output power density measured at 3 cm distance from the end of the light guide with filter is about 50 milliwatts/cm2. • Photosensitizer. […]

[1] = tested on: Porphyromonas Gingivalis and Prevotella Intermedia; conditions: for bactericidal effect without light exposure: methylene blue 0.075% and 0.1%, no red halogen light
Staphylococcus Aureus = conditions: micromolar concentrations; gram positive (Staph aureus); illuminated in light box; cited from earlier work

| Structure (SMILES) | bacterial cell death by phototoxicity (Escherichia Coli) | eradication of Candida albicans (Candida albicans) | bacterial killing without light exposure (P. gingivalis ATCC 33277; methylene blue 0.01%, without light exposure, P.gingivalis culture) | bactericidal effect on P.gingivalis (P. gingivalis ATCC 33277; methylene blue 0.1%) | killing with duration of red-filtered light exposure ([1]; 1, 5 and 10 min with methylene blue 0.05%, 5 and 10 min with methylene blue 0.025%) | reduction in bacteria counts ([1]; light 5 min with methylene blue 0.025%, light 1 min with methylene blue 0.05% and higher) | killing of bacteria without halogen light ([1]; methylene blue 0.001% or 0.025%, without halogen light) | bactericidal effect in combination with red-filtered high-intensity light ([1]; methylene blue 0.01% or higher, exposure less than 10 minutes, accumulated energy 30 J/cm^2, both species) | survival rate (bacterial colony count) ([1]; methylene blue 0.05% and higher, red light exposure 10 or 20 minutes) [%] | reduction of bacteria, methylene blue alone ([1]; methylene blue 0.05%, without exposure to light) | bactericidal effect without light exposure [1] | bactericidal effect without light exposure ([1]; listed as Methylene blue) | bacterial cell death by phototoxicity (Staphylococcus Aureus) |
| --- | --- | --- | --- | --- | --- | --- | --- | --- | --- | --- | --- | --- | --- |
| CN(C)c1ccc2nc3ccc(=[N+](C)C)cc-3sc2c1 [methylene blue] | bacterial cell death | totally eradicate | statistically significant bacterial killing | bactericidal effect | statistically significant increased killing with duration | Significant reduction in bacteria counts | nor concentrations of methylene blue of 0.001% or 0.025%, without halogen light, appeared to be effective in killing bacteria | bactericidal effect | ≤ 50 | insignificant | significantly bactericidal | significant bactericidal effect | bacterial cell death |
| Cc1cc2nc3ccc(N(C)C)cc3[s+]c2cc1N.[Cl-] [toluidine blue O] | bacterial cell death | – | – | – | – | – | – | – | – | – | – | – | bacterial cell death |
